“Also recorded” adds a separate entry of the source. Where two headings read alike, the source gives them in different places.
What was measured:
[1] = target: T1, human TLR-7 (Homo sapiens, UniProt Q9NYK1); experiment: TLR-7 HEK-SEAP reporter competition (antagonist) assay against agonist compound 5; conditions: for TLR-7 antagonist activity against compound 5 (in words): agonist compound 5 at different concentrations, FIGS. 1A-D; for IC50: read-out: TLR-7 reporter cell activity, IC50 of antagonists, relative IC50 at fixed concentration of compound 5, 3 μM
T1 sequence (Q9NYK1 27-1049): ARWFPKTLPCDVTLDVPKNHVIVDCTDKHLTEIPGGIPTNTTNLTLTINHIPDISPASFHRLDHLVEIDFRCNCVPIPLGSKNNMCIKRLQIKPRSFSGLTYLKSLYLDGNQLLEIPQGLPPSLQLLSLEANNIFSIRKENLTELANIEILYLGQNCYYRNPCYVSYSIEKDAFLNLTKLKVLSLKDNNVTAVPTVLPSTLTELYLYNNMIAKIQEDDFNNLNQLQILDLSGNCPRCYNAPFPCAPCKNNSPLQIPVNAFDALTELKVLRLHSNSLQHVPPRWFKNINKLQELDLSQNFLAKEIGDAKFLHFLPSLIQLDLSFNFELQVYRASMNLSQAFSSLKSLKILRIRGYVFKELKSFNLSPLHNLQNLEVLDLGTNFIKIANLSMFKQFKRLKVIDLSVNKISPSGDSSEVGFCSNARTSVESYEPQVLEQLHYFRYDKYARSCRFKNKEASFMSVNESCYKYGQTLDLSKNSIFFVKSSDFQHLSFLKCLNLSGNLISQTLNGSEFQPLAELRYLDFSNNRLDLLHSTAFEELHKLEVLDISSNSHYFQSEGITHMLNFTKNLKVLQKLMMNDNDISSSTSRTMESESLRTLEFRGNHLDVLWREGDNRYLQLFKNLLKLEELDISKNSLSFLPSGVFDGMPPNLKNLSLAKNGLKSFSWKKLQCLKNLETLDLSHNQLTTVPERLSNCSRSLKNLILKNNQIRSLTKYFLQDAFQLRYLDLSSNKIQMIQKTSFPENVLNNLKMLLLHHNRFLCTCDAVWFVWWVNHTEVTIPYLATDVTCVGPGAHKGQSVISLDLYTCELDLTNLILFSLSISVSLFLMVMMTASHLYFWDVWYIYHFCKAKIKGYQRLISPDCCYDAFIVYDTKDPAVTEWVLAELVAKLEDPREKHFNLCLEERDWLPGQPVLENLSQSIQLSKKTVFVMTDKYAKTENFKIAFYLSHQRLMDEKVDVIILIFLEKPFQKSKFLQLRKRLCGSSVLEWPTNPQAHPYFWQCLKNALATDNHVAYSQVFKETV

[2] = target: T1, human TLR-7; experiment: TLR-7/NF-κB/SEAP reporter assay in HEK293 cells, agonist mode
[3] = target: T2, human TLR-8 (Homo sapiens, UniProt Q9NR97); experiment: TLR-8/NF-κB/SEAP reporter assay in HEK293 cells, agonist mode; conditions: HEK-SEAP reporter cells
T2 sequence (Q9NR97 27-1041): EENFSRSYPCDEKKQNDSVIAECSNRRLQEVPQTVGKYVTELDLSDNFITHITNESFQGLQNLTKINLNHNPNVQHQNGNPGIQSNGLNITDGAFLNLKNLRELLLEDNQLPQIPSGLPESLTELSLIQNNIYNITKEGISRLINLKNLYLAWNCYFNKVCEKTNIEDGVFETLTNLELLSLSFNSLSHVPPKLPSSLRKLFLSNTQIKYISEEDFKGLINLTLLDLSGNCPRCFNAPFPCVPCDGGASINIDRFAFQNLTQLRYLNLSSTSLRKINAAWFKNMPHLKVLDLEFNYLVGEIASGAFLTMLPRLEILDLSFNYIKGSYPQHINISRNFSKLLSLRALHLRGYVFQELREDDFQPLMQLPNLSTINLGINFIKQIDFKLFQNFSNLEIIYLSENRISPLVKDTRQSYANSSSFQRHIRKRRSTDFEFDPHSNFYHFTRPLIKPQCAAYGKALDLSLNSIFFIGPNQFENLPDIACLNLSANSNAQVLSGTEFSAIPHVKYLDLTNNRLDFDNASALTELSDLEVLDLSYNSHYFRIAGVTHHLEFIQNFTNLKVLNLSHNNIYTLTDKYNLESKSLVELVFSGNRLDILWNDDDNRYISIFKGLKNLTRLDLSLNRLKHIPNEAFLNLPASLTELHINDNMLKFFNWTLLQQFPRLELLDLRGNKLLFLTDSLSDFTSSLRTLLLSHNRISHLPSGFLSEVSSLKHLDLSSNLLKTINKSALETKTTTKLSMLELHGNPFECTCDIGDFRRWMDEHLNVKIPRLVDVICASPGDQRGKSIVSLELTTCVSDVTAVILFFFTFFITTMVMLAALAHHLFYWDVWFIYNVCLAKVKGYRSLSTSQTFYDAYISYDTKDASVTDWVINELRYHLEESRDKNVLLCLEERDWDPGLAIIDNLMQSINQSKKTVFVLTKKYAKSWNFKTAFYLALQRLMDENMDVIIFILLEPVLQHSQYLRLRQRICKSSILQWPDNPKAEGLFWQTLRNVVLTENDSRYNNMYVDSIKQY

[4] = test system: TNFα, IFNγ and IL-1β production in hPBMCs; experiment: Competition assay of agonist-induced cytokine induction in hPBMCs (ELISA); type: cell-based, human
Protocol: Preparation and stimulation of PBMC. Human PBMC can be isolated from heparinized blood by standard density-gradient centrifugation over Ficoll-Paque Plus (Pharmacia, Uppsala, Sweden). Briefly, peripheral blood can be drawn by venipuncture into green top heparin tubes. The blood can be diluted 1:1 with PBS, and then layered upon Ficoll-Paque Plus in 50 ml centrifuge tubes. The tubes can be spun at 2000 rpm for 20 min, after which the buffy coats can be collected and washed twice in PBS. The isolated PBMC can be counted and added to the wells of a 24-well plate (5×10^5 cells/1 ml/well) in RPMI 1640 supplemented with 10% FBS, penicillin, streptomycin, sodium pyruvate, nonessential amino acids, and HEPES. TLR agonist 5 and TLR antagonist 3 can be prepared in DMSO and added to the wells (in triplicate) to reach the desired final concentrations. Some wells may only contain DMSO. After 24 h, culture supernatants can be collected, aliquoted, and frozen at −80° C. until analysis.
Quantitation of IL-1p, IFNγ, and TNFα. The amount of cytokines present in the supernatants after stimulation can be determined via Enzyme-Linked Immunosorbent Assay (ELISA) using a BioLegend ELISA MAX Deluxe Set for each cytokine tested. The assays can be conducted following the protocols provided by the assay set. Cell culture supernatants from hPBMCs can be used directly without dilution for the determination of IFNγ and TNFα but can be diluted accordingly for the IL-1β so the observed cytokine level could fall into the linear range of the assay.
These cytokines can be of particular interest due to the role they play in the driving Th1 differentiation of immune cells and development of cellular immunity.

[5] = target: T2, human TLR-8; experiment: TLR-8 HEK-SEAP reporter competition (antagonist) assay against agonist compound 5; conditions: agonist compound 5 at different concentrations, FIGS. 1A-D

For `COC(=O)c1ccc2c(c1)nc(N)c1nc(CC3CC3)n(Cc3ccc(CN)cc3)c12` [Compound 4, methyl 4-amino-1-(4-(aminomethyl)benzyl)-2-(cyclopropylmethyl)-1H-imidazo[4,5-c]quinoline-7-carboxylate], the “TLR-7 antagonist activity against compound 5 (in words)” value [1] was “concentration-dependent shifts; also recorded: low μM antagonists” and the IC50 [1] was 4.1 ± 0.2 µM.

For `COC(=O)c1ccc2c(c1)nc(N)c1nc(CC3CC3)n(CC(C)O)c12` (stereo not drawn) [Compound 2, methyl 4-amino-2-(cyclopropylmethyl)-1-(2-hydroxypropyl)-1H-imidazo[4,5-c]quinoline-7-carboxylate], the EC50 [2] was 13.4 ± 1.5 µM, the “TLR-7 agonist activity (in words)” value ([2]; HEK-SEAP reporter cells) was “showed agonist activity” and the “TLR-8 agonist activity (in words)” value [3] was “showed agonist activity”. For the same compound, the EC50 ([3]; read-out: TLR-8 reporter cell activity, EC50, agonist) was 18.8 ± 3.4 µM.

`COC(=O)c1ccc2c(c1)nc(N)c1nc(CC(C)C)n(Cc3ccc(CN)cc3)c12` [Compound 3, methyl 4-amino-1-(4-(aminomethyl)benzyl)-2-isobutyl-1H-imidazo[4,5-c]quinoline-7-carboxylate] was tested, and the “inhibition of TNFα production” value ([4]; agonist 5 induced, FIG. 4A) was “concentration-dependent reduction; also recorded: potent inhibitor”, the “inhibition of IFNγ production” value ([4]; agonist 5 induced, FIG. 4B) was “concentration-dependent reduction; also recorded: potent inhibitor” and the “inhibition of IL-1β production” value ([4]; agonist 5 induced, FIG. 4C) was “concentration-dependent reduction; also recorded: potent inhibitor”. The “stimulatory activity in hPBMCs” value ([4]; compound itself) was “devoid of stimulatory activity”, the “TLR-7 antagonist activity against compound 5 (in words)” value [1] was “concentration-dependent shifts; also recorded: low μM antagonists” and the IC50 [1] was 3.91 ± 0.15 µM.

For `COC(=O)c1ccc2c(c1)nc(N)c1nc(CC(C)C)n(CC(C)O)c12` (stereo not drawn) [Compound 1, methyl 4-amino-1-(2-hydroxypropyl)-2-isobutyl-1H-imidazo[4,5-c]quinoline-7-carboxylate], the “TLR-7 agonist activity (in words)” value ([2]; HEK-SEAP reporter cells) was “showed agonist activity”, the EC50 ([2]; read-out: TLR-7 reporter cell activity, EC50, HEK-SEAP reporter cells, agonist) was 29.4 ± 2.2 µM and the “TLR-8 antagonist activity against compound 5 (in words)” value [5] was “reduction of TLR-8 activity”.

— US20250025447A1, “TOLL-LIKE RECEPTOR AGONISTS AND ANTAGONISTS AND USES THEREOF” (Regents of the University of Minnesota, priority 2021, published 2025)
